Experiment [1] has as its target T1, Neutrophil elastase (Homo sapiens) (UniProt P08246).
T1 sequence (whole entry): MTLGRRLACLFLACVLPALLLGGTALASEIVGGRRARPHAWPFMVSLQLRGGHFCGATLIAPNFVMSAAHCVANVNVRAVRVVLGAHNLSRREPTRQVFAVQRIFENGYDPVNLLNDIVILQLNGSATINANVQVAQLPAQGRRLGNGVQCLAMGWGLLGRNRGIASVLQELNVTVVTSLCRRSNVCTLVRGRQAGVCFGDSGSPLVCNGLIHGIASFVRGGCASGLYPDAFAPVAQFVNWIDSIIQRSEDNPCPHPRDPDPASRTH
Nature of the experiment: Inhibition of recombinant HNE (unknown origin) at <50 uM using N-methylsuccinyl-Ala-Ala-Pro-Val-7-amino-4-methylcoumarin, as a substrate measured every 30 sec for 10 mins by fluorometric assay.

Experiment [2] has as its target T2, M-phase inducer phosphatase 1 (Homo sapiens, UniProt P30304).
T2 sequence (P30304 whole entry): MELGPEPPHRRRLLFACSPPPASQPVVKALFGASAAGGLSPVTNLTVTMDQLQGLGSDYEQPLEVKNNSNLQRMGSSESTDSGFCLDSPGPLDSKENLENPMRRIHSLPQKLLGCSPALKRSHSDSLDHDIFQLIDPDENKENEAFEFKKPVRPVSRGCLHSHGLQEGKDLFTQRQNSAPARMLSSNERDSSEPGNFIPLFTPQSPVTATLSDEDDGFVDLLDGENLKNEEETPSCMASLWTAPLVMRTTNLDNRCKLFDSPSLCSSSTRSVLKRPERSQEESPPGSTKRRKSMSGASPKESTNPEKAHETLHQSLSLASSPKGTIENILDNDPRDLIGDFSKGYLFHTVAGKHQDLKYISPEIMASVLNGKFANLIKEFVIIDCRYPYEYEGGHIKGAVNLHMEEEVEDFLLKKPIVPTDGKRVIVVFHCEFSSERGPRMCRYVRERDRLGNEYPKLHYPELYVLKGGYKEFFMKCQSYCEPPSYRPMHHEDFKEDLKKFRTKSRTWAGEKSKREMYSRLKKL
Description: Inhibition of recombinant Cdc25A (unknown origin) using OMFP as substrate measured every 30 sec for 10 mins by fluorometric assay

For experiment [3], the target named is T3, Dual specificity mitogen-activated protein kinase kinase 7 (Homo sapiens) (UniProt O14733).
T3 sequence (whole entry): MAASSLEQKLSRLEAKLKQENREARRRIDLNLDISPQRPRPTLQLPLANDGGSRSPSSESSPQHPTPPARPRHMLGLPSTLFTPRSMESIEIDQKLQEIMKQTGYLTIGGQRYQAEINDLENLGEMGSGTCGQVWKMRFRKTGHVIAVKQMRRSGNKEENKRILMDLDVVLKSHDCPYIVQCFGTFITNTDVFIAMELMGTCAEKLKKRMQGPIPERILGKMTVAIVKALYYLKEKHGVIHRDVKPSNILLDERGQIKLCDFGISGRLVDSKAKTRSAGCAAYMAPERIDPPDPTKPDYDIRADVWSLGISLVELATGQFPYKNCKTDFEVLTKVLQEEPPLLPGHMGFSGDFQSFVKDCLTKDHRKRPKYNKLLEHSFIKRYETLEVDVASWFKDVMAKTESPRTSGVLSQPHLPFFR
Nature of the experiment: Binding affinity to MKK7 (unknown origin) expressed in HEK293 cells assessed as dissociation constant at <30 uM by kinomescan method. The format is cell-based.

Experiment [4] addresses T4, M-phase inducer phosphatase 2 (Homo sapiens, UniProt P30305).
T4 sequence (P30305 whole entry): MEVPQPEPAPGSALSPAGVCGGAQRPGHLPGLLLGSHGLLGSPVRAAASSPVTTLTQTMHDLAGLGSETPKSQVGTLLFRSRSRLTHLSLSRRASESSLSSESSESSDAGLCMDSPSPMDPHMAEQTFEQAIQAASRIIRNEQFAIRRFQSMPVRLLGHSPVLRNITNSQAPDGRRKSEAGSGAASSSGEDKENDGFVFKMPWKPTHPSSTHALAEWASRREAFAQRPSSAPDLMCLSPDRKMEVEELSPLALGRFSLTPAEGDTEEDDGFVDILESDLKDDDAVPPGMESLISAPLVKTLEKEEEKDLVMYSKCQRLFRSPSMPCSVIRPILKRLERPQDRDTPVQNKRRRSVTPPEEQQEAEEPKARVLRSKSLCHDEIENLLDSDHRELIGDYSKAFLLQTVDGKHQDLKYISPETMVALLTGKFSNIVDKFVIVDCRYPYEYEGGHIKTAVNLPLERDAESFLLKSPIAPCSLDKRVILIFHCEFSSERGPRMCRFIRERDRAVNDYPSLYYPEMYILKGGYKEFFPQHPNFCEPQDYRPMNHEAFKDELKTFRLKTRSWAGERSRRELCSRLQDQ
Description: Inhibition of recombinant Cdc25B (unknown origin) using OMFP as substrate measured every 30 sec for 10 mins by fluorometric assay

Experiment [5] has as its system HL-60. Nature of the experiment: Cytotoxicity against human HL60 cells assessed as reduction in cell viability incubated for 24 hrs by CellTiter-Glo luminescent cell viability assay. It is filed as functional, cell-based. The following applies: for IC50: HL-60, 24 h. Background: Cellular ATP, detected with luciferase, serves as a proxy for viable cell number.
The subject of experiment [6] is SW982. Description: Cytotoxicity against human SW982 cells assessed as reduction in cell viability incubated for 24 hrs by CellTiter-Glo luminescent cell viability assay. Conditions: SW982, 24 h. The format is functional, cell-based.
Experiment [7] deals with A549. Nature of the experiment: Cytotoxicity against human A549 cells assessed as reduction in cell viability incubated for 24 hrs by CellTiter-Glo luminescent cell viability assay. The format is functional, cell-based. The following applies: A549, 24 h.
The test system of experiment [8] is LS174T. Description: Cytotoxicity against human LS174T cells assessed as reduction in cell viability incubated for 24 hrs by CellTiter-Glo luminescent cell viability assay. It is filed as functional, cell-based.
Experiment [9] has as its system PBMC. Description: Cytotoxicity against human PBMC cells assessed as reduction in cell viability incubated for 24 hrs by CellTiter-Glo luminescent cell viability assay. It is filed as cell-based.
Experiment [10] concerns Jurkat. Nature of the experiment: cells. The following applies: Homo sapiens, 24 h.
Description: Cytotoxicity against human Jurkat cells assessed as reduction in cell viability incubated for 24 hrs by CellTiter-Glo luminescent cell viability assay
In experiment [11] the test system is U-937. Description: Cytotoxicity against human U937 cells assessed as reduction in cell viability incubated for 24 hrs by CellTiter-Glo luminescent cell viability assay. It is filed as functional, cell-based. The following applies: U-937, 24 h.
The subject of experiment [12] is MCF7. Description: Cytotoxicity against human MCF7 cells assessed as reduction in cell viability incubated for 24 hrs by CellTiter-Glo luminescent cell viability assay. The format is functional, cell-based. Conditions: MCF7, 24 h.
Experiment [13] relates to MONO-MAC-6. Nature of the experiment: Cytotoxicity against human MONO-MAC-6 cells assessed as reduction in cell viability incubated for 24 hrs by CellTiter-Glo luminescent cell viability assay. It is filed as functional, cell-based. Conditions: MONO-MAC-6, 24 h.
The subject of experiment [14] is THP-1. Description: Cytotoxicity against human THP1 cells assessed as reduction in cell viability incubated for 24 hrs by CellTiter-Glo luminescent cell viability assay. The format is functional, cell-based. Conditions: THP-1, 24 h.

The source made the active and inactive calls. No cut-off for these calls is given here.

With `O=C(O)CCCNC1=C(Cl)C(=O)c2ccccc2C1=O`, the inhibition entry in [1] and in [3] was “inactive” in each case. Moreover, the IC50 (usually the point on the concentration scale where inhibition reaches its midpoint) was 8.2 µM in experiment [2] and 10.9 µM in [4].

As to `COC(=O)c1ccc(NC2=C(N3CCCCC3)C(=O)c3ccccc3C2=O)cc1`, the inhibition entry in experiment [1] and in experiment [3] was “inactive” in each case. The half-maximal inhibitory concentration (IC50) in experiment [2] was 11.6 µM; in experiment [4], 14.2 µM.

In the case of `O=C(O)CCNC1=C(Cl)C(=O)c2ccccc2C1=O`, the inhibition result in [1] and in experiment [3] was “inactive” each time. The figures for the IC50 in experiment [2] and in experiment [4] were 26.1 µM and 28.8 µM, respectively.

In the case of `CC1=CC(=O)c2ccccc2C1=O` [MENADIONE], the inhibition entry in experiment [1] was “inactive”. In addition, the IC50 is 5.6 µM in [5]; 9.3 µM in experiment [6]; 25.1 µM in experiment [7]; 6.9 µM in experiment [2]; 26.6 µM in experiment [8]; 14.5 µM in experiment [9] (read-out: IC50). Also, the IC50 in experiment [10] was determined as 5 µM; in experiment [11], 6.3 µM; in [12], 9 µM; in experiment [4], 3.9 µM. In addition, in experiment [3], the result was inactive.

For `O=C(O)CCCc1nc2ccccc2c(=O)[nH]1`, the result in experiment [3] was inactive.

`Nn1c(CCC(=O)O)nc2ccccc2c1=O`: the result in experiment [3] was inactive.

Turning to `O=C(O)CCNC(=O)Cn1cnc2ccccc2c1=O`, in [3], the result was inactive.

With `O=C(O)CCCCCNC1=C(Cl)C(=O)c2ccccc2C1=O`, the inhibition result in experiment [1] and in [3] was “inactive” in each case. For the same compound, the IC50 in [2] is 36.4 µM; in experiment [4] it was 23.7 µM.

For the compound `O=C(O)CSc1nc(O)c2ccccc2n1`, the result in experiment [3] was inactive.

For the compound `COC(=O)c1ccc(NC2=C(Cl)C(=O)c3ccccc3C2=O)cc1`, the inhibition result in experiment [1] and in experiment [3] was “inactive” each time. In addition, the IC50 was determined as 20.3 µM in [2] and 10.9 µM in [4].

As for `O=C(O)CCSc1nc(O)c2ccccc2n1`, the result in experiment [3] was inactive.

Turning to `CC1=CC(=O)c2c(O)cccc2C1=O`, the inhibition entry in experiment [1] was “inactive”.

On to `Cn1c(SCCC(=O)O)nc2ccccc2c1=O`, for which, in experiment [3], the outcome was inactive.

Consider `CC(C)=CC[C@@H](O)C1=CC(=O)c2c(O)ccc(O)c2C1=O` [SHIKONIN], for which the inhibition result in [1] is “inactive”. The Activity result in experiment [5] was “Dose-dependent effect”. Besides, the IC50 in experiment [6] is 2.8 µM; in experiment [7] it was 7.3 µM; in experiment [13] it was 2.6 µM; in [2], 0.22 µM; in experiment [8] it was 8.9 µM; in experiment [9] (read-out: IC50), 5 µM. Also, the IC50 in experiment [14] worked out at 0.82 µM; in [10], 0.97 µM; in experiment [11] it was 1.2 µM; in experiment [12], 2.7 µM. Besides, in [3], the result was inactive.

Compound `O=C1C(O)=C(CN(CCCl)CCCl)C(=O)c2ccccc21` yielded an IC50 in experiment [2] of 15.4 µM.

On to `CCN(CC)CCNC(=O)c1c(C)[nH]c(/C=C2\C(=O)Nc3ccc(F)cc32)c1C` [SUNITINIB], for which the IC50 is 41.2 µM in experiment [6], 46.3 µM in [9] and 13.7 µM in experiment [11].

Turning to `CSC1=C(SC)C(=O)c2ccccc2C1=O`, the inhibition result in experiment [1] is “inactive”. In addition, the IC50 came to 0.7 µM in [5]; 7.6 µM in experiment [6]; 12.4 µM in experiment [7]; 15.1 µM in [8]; 1.7 µM in experiment [14]; 1.4 µM in experiment [10]. For the same compound, in experiment [12], the IC50 was determined as 7.4 µM.
